The text below walks through data of publication PMC4770715, “LIM kinase inhibitors disrupt mitotic microtubule organization and impair tumor cell proliferation” (Oncotarget, 2015).

SMILES strings stand for the structures.

What all share (assay): biochemical
Holding throughout (parameters): KINOMEscan active-site competition binding, percent of control (100 = no competition)
Common to all, as to details: competition binding, percent control

The target in assay [1] is T1, ASK2 (Homo sapiens, UniProt O95382).
T1 construct: gene MAP3K6

The target in assay [2] is T2, BIKE (Homo sapiens, UniProt Q9NSY1).
T2 construct: gene BMP2K

In assay [3] the target is BRSK1 (Homo sapiens, UniProt Q8TDC3).
Assay [4] has as its target BTK (Homo sapiens, UniProt Q06187).
For assay [5], the target named is EGFR(T790M) (Homo sapiens, UniProt P00533, T790M).
Assay [6] has as its target EPHA5 (Homo sapiens, UniProt P54756).
The target of assay [7] is EPHA7 (Homo sapiens, UniProt Q15375).
Assay [8] has as its target EPHA8 (Homo sapiens, UniProt P29322).
In assay [9] the target is INSRR (Homo sapiens, UniProt P14616).
Assay [10] addresses KIT(D816V) (Homo sapiens, UniProt P10721, D816V).
Assay [11] addresses MAST1 (Homo sapiens, UniProt Q9Y2H9).
For assay [12], the target named is T3, MINK (Homo sapiens, UniProt Q8N4C8).
T3 construct: gene MINK1

For assay [13], the target named is T4, MLK1 (Homo sapiens, UniProt P80192).
T4 construct: gene MAP3K9

Assay [14] concerns the target MST1R (Homo sapiens, UniProt Q04912).
Assay [15] concerns the target MUSK (Homo sapiens, UniProt O15146).
The target of assay [16] is MYLK (Homo sapiens, UniProt Q15746).
For assay [17], the target named is PIK3C2G (Homo sapiens, UniProt O75747).
The target of assay [18] is PIK3CA(C420R) (Homo sapiens, UniProt P42336, C420R).
Assay [19] deals with PIK3CA(H1047Y) (Homo sapiens, UniProt P42336, H1047Y).
Assay [20] concerns the target T5, PRP4 (Homo sapiens, UniProt Q13523).
T5 construct: gene PRPF4B

The target of assay [21] is RAF1 (Homo sapiens, UniProt P04049).
The target in assay [22] is STK35 (Homo sapiens, UniProt Q8TDR2).
Assay [23] deals with ULK1 (Homo sapiens, UniProt O75385).
Sequence of ULK1 (O75385 whole entry): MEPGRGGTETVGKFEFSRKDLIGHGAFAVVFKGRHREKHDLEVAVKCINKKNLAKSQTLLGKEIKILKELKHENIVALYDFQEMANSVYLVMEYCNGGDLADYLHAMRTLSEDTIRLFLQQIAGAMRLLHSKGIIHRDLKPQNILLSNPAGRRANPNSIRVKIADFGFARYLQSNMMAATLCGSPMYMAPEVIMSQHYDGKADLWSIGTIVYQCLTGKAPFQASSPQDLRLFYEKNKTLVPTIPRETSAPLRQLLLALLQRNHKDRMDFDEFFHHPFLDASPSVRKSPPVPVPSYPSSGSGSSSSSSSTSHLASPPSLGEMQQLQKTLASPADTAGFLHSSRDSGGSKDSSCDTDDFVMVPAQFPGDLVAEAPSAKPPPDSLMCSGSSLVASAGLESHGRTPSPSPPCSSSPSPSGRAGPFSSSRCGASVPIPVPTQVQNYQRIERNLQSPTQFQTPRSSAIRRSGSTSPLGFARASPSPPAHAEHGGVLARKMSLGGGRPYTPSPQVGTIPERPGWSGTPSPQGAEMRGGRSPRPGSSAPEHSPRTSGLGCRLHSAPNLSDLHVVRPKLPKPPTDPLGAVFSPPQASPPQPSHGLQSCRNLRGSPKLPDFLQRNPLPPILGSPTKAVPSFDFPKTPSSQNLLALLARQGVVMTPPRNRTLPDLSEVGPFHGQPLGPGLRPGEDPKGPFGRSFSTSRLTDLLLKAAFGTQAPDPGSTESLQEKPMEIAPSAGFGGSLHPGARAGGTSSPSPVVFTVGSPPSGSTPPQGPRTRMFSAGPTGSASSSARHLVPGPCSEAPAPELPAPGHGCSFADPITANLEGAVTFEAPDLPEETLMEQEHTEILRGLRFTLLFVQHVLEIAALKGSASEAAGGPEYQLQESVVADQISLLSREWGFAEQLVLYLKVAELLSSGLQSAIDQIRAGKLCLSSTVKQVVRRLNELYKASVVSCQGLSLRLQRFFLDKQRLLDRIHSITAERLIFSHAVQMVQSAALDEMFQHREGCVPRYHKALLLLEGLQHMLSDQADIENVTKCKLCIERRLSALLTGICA

Sequence of MST1R (Q04912 whole entry): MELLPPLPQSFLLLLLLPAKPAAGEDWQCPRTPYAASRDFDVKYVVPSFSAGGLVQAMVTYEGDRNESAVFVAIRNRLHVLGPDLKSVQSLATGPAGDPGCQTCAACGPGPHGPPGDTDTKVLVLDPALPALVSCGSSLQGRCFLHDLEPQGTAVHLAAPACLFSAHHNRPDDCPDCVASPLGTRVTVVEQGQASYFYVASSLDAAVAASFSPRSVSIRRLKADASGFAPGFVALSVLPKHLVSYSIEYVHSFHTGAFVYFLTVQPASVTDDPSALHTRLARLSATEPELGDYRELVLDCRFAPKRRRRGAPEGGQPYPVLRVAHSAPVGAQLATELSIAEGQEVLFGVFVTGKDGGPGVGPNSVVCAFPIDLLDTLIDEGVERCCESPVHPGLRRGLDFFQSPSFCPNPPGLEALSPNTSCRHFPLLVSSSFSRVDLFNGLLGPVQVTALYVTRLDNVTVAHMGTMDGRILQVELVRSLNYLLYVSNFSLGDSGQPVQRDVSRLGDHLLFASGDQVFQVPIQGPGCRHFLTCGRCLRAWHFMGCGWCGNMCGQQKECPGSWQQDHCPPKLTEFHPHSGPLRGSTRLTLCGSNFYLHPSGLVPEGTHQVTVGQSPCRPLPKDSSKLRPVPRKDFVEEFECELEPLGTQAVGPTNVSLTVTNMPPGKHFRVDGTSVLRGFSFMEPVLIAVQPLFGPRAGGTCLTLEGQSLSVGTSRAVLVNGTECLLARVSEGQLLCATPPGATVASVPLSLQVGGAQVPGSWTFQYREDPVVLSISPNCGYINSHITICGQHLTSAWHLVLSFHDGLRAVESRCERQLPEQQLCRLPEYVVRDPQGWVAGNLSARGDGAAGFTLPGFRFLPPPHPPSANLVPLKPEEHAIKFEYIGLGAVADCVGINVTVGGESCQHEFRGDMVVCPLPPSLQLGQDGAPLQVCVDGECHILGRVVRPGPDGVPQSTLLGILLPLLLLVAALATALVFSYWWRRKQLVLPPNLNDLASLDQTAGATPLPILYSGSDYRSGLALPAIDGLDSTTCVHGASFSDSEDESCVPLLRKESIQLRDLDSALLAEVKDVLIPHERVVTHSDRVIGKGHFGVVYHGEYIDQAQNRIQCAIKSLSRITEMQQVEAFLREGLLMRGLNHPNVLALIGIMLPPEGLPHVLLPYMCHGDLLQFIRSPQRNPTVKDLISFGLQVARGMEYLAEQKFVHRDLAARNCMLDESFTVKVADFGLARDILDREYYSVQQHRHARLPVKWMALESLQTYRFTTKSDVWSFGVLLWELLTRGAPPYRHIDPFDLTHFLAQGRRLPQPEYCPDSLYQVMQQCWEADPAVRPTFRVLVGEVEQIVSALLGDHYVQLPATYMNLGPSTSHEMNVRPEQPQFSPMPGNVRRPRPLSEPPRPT
Sequence of RAF1 (P04049 whole entry): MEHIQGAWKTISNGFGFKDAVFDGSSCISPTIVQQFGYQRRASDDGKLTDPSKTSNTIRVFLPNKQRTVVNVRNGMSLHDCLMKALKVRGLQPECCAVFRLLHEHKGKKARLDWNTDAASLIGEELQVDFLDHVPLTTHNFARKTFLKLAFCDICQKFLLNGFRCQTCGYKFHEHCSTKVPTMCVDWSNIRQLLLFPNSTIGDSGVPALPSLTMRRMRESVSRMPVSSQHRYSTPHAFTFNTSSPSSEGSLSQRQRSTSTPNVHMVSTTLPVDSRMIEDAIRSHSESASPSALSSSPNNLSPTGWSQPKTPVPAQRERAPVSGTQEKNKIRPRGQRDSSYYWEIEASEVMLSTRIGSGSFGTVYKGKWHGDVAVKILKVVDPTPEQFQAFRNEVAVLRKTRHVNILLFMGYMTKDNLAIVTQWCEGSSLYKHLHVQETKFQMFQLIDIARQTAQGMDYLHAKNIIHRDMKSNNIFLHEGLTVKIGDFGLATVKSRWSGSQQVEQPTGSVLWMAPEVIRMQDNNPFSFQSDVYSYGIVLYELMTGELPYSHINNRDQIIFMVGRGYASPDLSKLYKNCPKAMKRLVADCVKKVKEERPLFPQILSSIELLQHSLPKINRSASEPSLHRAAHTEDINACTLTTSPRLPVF
Sequence of EGFR(T790M) (P00533 whole entry T790M): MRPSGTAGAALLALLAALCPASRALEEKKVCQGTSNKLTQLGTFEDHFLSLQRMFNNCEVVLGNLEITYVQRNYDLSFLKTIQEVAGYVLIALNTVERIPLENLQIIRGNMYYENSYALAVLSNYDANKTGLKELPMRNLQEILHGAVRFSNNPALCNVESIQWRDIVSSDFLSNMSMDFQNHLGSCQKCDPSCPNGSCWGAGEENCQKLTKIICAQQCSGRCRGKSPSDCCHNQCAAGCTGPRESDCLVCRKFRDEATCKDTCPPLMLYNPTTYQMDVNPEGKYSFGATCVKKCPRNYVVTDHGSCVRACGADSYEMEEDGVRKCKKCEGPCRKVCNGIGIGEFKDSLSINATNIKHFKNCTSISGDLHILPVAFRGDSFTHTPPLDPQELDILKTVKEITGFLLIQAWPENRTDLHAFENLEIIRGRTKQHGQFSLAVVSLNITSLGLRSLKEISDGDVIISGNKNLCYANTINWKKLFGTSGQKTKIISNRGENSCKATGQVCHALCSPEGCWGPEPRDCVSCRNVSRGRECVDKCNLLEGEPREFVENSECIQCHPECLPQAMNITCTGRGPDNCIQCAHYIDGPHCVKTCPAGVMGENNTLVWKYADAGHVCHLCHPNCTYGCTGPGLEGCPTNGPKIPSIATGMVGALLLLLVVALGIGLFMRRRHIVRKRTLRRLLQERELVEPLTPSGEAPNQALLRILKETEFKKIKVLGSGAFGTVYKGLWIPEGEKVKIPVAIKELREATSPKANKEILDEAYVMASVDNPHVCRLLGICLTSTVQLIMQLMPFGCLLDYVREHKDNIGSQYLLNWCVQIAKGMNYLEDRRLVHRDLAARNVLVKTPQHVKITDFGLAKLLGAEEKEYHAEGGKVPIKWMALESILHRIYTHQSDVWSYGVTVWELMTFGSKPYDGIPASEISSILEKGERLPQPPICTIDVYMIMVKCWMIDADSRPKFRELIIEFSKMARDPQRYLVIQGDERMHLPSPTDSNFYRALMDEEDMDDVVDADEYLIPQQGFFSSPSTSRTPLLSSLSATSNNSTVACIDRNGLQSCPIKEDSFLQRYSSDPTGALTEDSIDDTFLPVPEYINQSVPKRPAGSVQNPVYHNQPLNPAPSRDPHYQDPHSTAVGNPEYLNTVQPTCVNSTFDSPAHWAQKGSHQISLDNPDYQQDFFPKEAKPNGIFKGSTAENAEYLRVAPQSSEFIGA
Sequence of BRSK1 (Q8TDC3 whole entry): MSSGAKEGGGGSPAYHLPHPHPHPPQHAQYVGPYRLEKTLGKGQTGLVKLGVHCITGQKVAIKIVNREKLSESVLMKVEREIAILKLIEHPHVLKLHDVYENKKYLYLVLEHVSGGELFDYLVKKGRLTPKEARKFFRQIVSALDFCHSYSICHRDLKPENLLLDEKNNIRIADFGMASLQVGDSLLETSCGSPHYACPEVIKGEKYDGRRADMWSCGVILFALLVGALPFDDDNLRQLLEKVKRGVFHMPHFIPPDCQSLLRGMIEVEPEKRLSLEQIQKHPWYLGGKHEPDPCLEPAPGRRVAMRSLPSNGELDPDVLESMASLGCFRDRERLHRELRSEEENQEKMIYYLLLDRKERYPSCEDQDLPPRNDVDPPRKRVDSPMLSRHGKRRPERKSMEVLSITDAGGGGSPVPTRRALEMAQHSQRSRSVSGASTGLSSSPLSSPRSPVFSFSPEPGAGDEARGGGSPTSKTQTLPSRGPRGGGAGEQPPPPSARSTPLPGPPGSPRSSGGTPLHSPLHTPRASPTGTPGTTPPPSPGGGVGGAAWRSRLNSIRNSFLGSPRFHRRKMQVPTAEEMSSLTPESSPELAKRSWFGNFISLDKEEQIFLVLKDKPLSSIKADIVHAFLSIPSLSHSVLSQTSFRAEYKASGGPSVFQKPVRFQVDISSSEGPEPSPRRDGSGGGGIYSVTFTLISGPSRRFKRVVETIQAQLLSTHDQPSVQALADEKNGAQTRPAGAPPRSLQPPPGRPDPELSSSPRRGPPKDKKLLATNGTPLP

`COc1ccc(-c2cnccc2-c2cnc(NC(=O)C(C)C)s2)c(C(F)(F)F)c1` [CRT0105446, N-{5-[3-(4-Methoxy-2-trifluoromethyl-phenyl)-pyridin-4-yl]-hiazol-2-yl}-isobutyramide]: the remaining binding at 10 µM in assay [1] worked out at 100%; in assay [2] it was 100%; in assay [3] it was 27%; in assay [4] it was 85%; in assay [5], 78%; in [6] it was 100%. The remaining binding at 10 µM is 94% in [7]; 100% in [8]; 96% in [9]; 83% in assay [10]; 68% in assay [11]; 100% in assay [12]. For the same compound, the remaining binding at 10 µM in assay [13] turned out to be 86%; in assay [14], 100%; in assay [15], 96%; in assay [16], 100%; in [17], 100%; in [18], 100%. The remaining binding at 10 µM came to 94% in assay [19]; 100% in [20]; 100% in assay [21]; 98% in assay [22]; 100% in assay [23].

As to `Cc1ccc(-c2cnccc2-c2cnc(Nc3ccc(O)cc3)s2)c(Cl)c1` [CRT0105950, 4-{5-[3-(2-Chloro-4-methyl-phenyl)-pyridin-4-yl]-thiazol-2-ylamino}-phenol], the remaining binding at 10 µM in assay [1] was found to be 100%; in assay [2] it was 36%; in assay [3], 30%; in assay [4], 72%; in [5], 63%; in [6] it was 100%. The remaining binding at 10 µM in assay [7] was determined as 83%; in [8], 88%; in assay [9], 0.15%; in assay [10], 2.8%; in assay [11], 84%; in assay [12] it was 13%. Moreover, the remaining binding at 10 µM in assay [13] came out at 13%; in [14], 92%; in assay [15], 18%; in [16], 28%; in assay [17], 95%; in [18], 88%. For the same compound, the remaining binding at 10 µM was 93% in [19]; 100% in assay [20]; 85% in assay [21]; 100% in assay [22]; 38% in assay [23].
